Consider 7 molecules from patent publication US20240262814A1, “MODULATORS OF TREX1” (Constellation Pharmaceuticals, Inc., priority 2021, published 2024).

SMILES strings stand for the structures. Bounds are passed on as bounds.

The IC50 is the concentration needed to halve the response being measured.

The assay concerns hTREX1 HCT116. Kind of assay: hTREX1 HCT116 Cell Assay (Lucia luciferase reporter, Type I interferon induction). It is filed as cell-based. To be noted: Homo sapiens, HCT-116, HCT116 dual cells, 4h compound, then pBR322/BstNI DNA transfection, 48h. An excerpt: HCT116 dual cells (Invivogen, San Diego, CA, USA) are derived from the human HCT116 colorectal carcinoma cell line. Cells have been selected for the stable integration of SEAP and Luciferase reporter genes, which expression is under the control of 5 tandem response elements for NF-KB/AP1 and STAT1/STAT2, respectively. The cell line was used to monitor Type I interferon induction and subsequent signaling by measuring the activity of the Lucia luciferase secreted in the culture medium.
HCT116 cells were plated in 96-well plate(s) at 40,000 cells/well in 100 uL DMEM supplemented with 10% FBS and 25 mM Hepes (pH 7.2-7.5). After overnight settling, cells were treated with TREX1i for 4h (maximum DMSO fraction was 0.1%) before 1 ug/mL pBR322/BstNI restriction digest (New England Biolabs, Ipswich, MA, USA) was transfected with Lipofectamine LTX (ThermoFisher, Grand Island, NY, USA), according to product manual recommendations. Briefly, Lipofectamine LTX (0.35 uL/well) was diluted in OptiMEM (5 uL/well). pBR322/BstNI (100 ng/well) was diluted in OptiMEM (5 uL/well) before Plus reagent (0.1 uL/100 ng DNA) was added. After 5 min incubation at room temperature, the DNA mixture was mixed dropwise with the diluted Lipofectamine LTX. After an additional 10 min incubation, the transfection mix (10 uL/well) was added to the cells. Cells were maintained at 37 C for 48h before monitoring the Lucia Luciferase activity from the cell culture medium.
A general note: Reporter assays use an easily measured gene product as a stand-in for the process of interest.
In turn, `Cn1c([C@H](C(c2ccccc2)c2ccccc2)C(F)(F)F)nc(C(=O)Nc2cnoc2)c(O)c1=O` (single isomer, unassigned) [Example 20 Isomer 1, 5-Hydroxy-N-(isoxazol-4-yl)-1-methyl-6-oxo-2-(1,1,1-trifluoro-3,3-diphenylpropan-2-yl)-1,6-dihydropyrimidine-4-carboxamide] displayed an IC50 of more than 100 nM.
Then `CC(c1nc(C(=O)Nc2cnoc2)c(O)c(=O)n1C)C(c1ccccc1)c1ccccc1` (single isomer, unassigned) [Example 1 Isomer 1, 2-(1,1-diphenylpropan-2-yl)-5-hydroxy-N-(isoxazol-4-yl)-1-methyl-6-oxo-1,6-dihydro pyrimidine-4-carboxamide], with more than 100 nM; and `Cn1c([C@@H](C(c2ccccc2C#N)c2ccccc2C#N)C(F)(F)F)nc(C(=O)Nc2cnoc2)c(O)c1=O` (single isomer, unassigned) [Example 21 Isomer 1, 2-(3,3-bis(2-cyanophenyl)-1,1,1-trifluoropropan-2-yl)-5-hydroxy-N-(isoxazol-4-yl)-1-methyl-6-oxo-1,6-dihydropyrimidine-4-carboxamide], with less than 10 nM.
Then `CC(c1nc(C(=O)Nc2cnoc2)c(O)c(=O)n1C)C(c1ccccc1)c1cc(C(=O)N(C)C)ccc1C#N` (single isomer, unassigned) [Example 17 Isomer 3], with 10 to 100 nM; and `CC(c1nc(C(=O)Nc2cnoc2)c(O)c(=O)n1C)C(c1ccccc1C#N)c1ccccc1C#N` (single isomer, unassigned) [Example 4 Isomer 2], with less than 10 nM.
For the molecule `C[C@H](c1nc(C(=O)Nc2cnoc2)c(O)c(=O)n1C)[C@H](c1ccccc1)c1ccccc1C(F)(F)F` (single isomer, unassigned) [Example 14 Isomer 2, 5-Hydroxy-N-(isoxazol-4-yl)-1-methyl-6-oxo-2-(1-phenyl-1-(2-(trifluoromethyl)phenyl)propan-2-yl)-1,6-dihydropyrimidine-4-carboxamide], the IC50 is more than 100 nM.
The figure for `C[C@H](c1nc(C(=O)Nc2cnoc2)c(O)c(=O)n1C)C(c1ccccc1Cl)c1ccccc1Cl` (single isomer, unassigned) [Example 15 Isomer 1, 2-(1,1-bis(2-chlorophenyl)propan-2-yl)-5-hydroxy-N-(isooxazol-4-yl)-1-methyl-6-oxo-1,6-dihydropyrimidine-4-carboxamide] is 10 to 100 nM.
